Source: article PMC9065035, “Structural basis for the synthesis of the core 1 structure by C1GalT1” (Nature Communications, 2022)
Peptide text beside a SMILES is read from it. * marks the point of attachment. αGalNAc = CC(=O)N[C@@H]1[C@@H](O)[C@@H](O)[C@@H](CO)O[C@@H]1*

Experiments:
[1] = Activity of DmC1GalT1 mutants (UDP-Glo); assay type: biochemical, Drosophila melanogaster; conditions: 500 µM UDP-Gal, 500 µM APDT*RP
Text: The DNA sequence encoding amino acid residues of the DmC1GalT1 (aa T43-Q388) was codon optimized and synthesized by GenScript (USA) for expression in HEK293 cells (GIBCO). The construct, containing at the 5′-end a recognition sequence for AgeI, and at the 3′-end a recognition sequence for KpnI, was cloned into a pHLSec plasmid that contained a sequence encoding a 6xHis tag at the 3′-end followed by a stop codon, rendering the vector pHLSec-DmC1GalT1-6His. The cloning of the construct into pHLSec was performed by GenScript. All mutants in DmC1GalT1 (R152A, Y213A, Y218A, D255A, W300A and Y325A) were generated following a standard site-directed mutagenesis protocol by GenScript using the vector pHLSec-DmC1GALT1-6His. pHLSec-DmC1GalT1-6His and all the plasmids encoding for the different mutants were transfected into HEK293 cell line as described below. For DNA amplification, all plasmids were transformed in E. coli DH5α cells and extracted with PureLink™ Expi Endotoxin-Free Giga Plasmid Purification Kit (Invitrogen) according to the manufacturer’s instructions. Cells were grown in suspension in a humidified 37 °C and 8% CO2 incubator with rotation at 125 rpm. Transfection was performed at a cell density of 2.5 × 10^6 cell/mL in fresh media F17 serum-free media (Gibco) with 2% Glutamax and 0.1% Kolliphor® P 188. For each 150 mL of culture, 450 μg of the plasmid (1 μg/μL) was mixed with 135 μL of sterilized 1.5 M NaCl. This mixture was added to each 150 mL cell culture flask and incubated for 5 min in the incubator. […] Cells were diluted 1:1 with pre-warmed media supplemented with valproic acid 24 h post-transfection to a final concentration of 2.2 mM. Then, cells were harvested 6 days post-transfection by spinning down at 300 × g for 5 min, after which the supernatants were collected and centrifuged at 4000 × g for 15 min. Supernatant was dialyzed against buffer A and loaded into a His-Trap Column (GE Healthcare). Protein was eluted with an imidazol gradient in buffer A from 10 mM up to 400 mM. Buffer exchange to buffer C was carried out using a HiPrep 26/10 Desalting Column (GE Healthcare). The isolated DmC1GalT1-His and its mutants were then loaded in HiLoad 26/60 Superdex 75 Colum (GE Healthcare), previously equilibrated with buffer C.

DmC1GalT1^T43-Q388 [2] = target: T1, DmC1GalT1^T43-Q388 (Drosophila melanogaster, UniProt Q7K237); assay: UDP-Glo glycosylation kinetics of DmC1GalT1 T43-Q388; conditions: for Km: read-out: Km app; for kcat app/Km app (catalytic efficiency): ± standard error
T1 sequence (Q7K237 43-388): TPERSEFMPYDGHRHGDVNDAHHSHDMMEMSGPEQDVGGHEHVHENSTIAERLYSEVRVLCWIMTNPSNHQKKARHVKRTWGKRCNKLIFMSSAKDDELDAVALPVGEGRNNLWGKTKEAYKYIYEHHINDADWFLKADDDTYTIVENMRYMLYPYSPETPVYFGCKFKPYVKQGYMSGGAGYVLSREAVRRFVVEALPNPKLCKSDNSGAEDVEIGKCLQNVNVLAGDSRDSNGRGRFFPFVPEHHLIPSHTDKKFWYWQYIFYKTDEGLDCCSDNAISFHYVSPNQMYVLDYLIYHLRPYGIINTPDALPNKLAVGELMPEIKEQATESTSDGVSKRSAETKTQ

DmC1GalT1^T43-Q388 [3] = target: T1, DmC1GalT1^T43-Q388; assay: STD NMR experiments; assay type: binding; design: made in house; conditions: for STD response: presence of UDP ([…]) and 150 µM MnCl2, 20 µM enzyme, 710 µM ligand
Protocol: STD NMR experiments were performed using a 1:35 molar ratio, defined by 20 μM DmC1GalT1^T43-Q388 and 710 μM ligands (α-O-methyl-GalNAc, and (glyco)peptides), and 25 mM Tris(D11)-DCl buffer, pD 7.5, with 150 mM NaCl and 150 µM MnCl2 in D2O. […] In the presence of 150 µM MnCl2, strong paramagnetic relaxation enhancements are observed for UDP, which prevents the observation of UDP proton signals in the NMR spectra. […] STD NMR spectra (stddiffesgp pulse sequence from Bruker pulse program library) were acquired with 1728 scans and 64 K data points, in a spectral window of 12335.53 Hz centered at 2818 Hz. Selective saturation (on resonance) was performed by irradiating at 7 and/or −0.5 ppm (depending if the ligand contains or not aromatic residues) using a series of 40 Eburp2.1000-shaped (from Bruker shaped pulses library) 90° pulses (50 ms) for a total saturation time of 2 s, and a relaxation delay of 4 s. For the reference spectrum (off resonance), the samples were irradiated at 100 ppm. Proper control experiments were performed for each ligand in the absence of protein and residual STD signals of the methyl groups of Ala/Thr were observed. […] Protein control experiments were also accomplished using DmC1GalT1^T43-Q388 in absence of a ligand and also subtracted from STD experiment. The STD spectrum (ISTD) was obtained by subtracting the on-resonance spectrum (Ion) to the off-resonance spectrum (Ioff). The % of STD (ISTD/Ioff × 100) was estimated by comparing the intensity of the signals in the STD spectrum (ISTD) with the signal intensities of the reference spectrum (Ioff). The STD amplification factor (STDAF) was also estimated by multiplying the % STD values by the ligand excess, which in the case of our experiments was 35 for every ligand. To determine the STD-derived epitope map the relative % of STD were calculated by setting to 100% the STD signal of the proton with the highest STD intensity and calculating the others accordingly (Supplementary Tables 2–4). Some protons were not able to be assessed with accuracy due to the use of water suppression or low signal/noise ratio and display a blue circle in the STD-derived epitope maps. Moreover, the resonances overlapped on the ^1H-NMR spectrum were considered in STD estimation and are labelled as *.

DmC1GalT1^T43-Q388 [4] = target: T1, DmC1GalT1^T43-Q388; assay: Isothermal titration calorimetry (ITC); assay type: binding; design: made in house; conditions: for Kd: 25 mM TRIS pH 7.5, 150 mM NaCl, one-site fit ± fit error, n = 2
Protocol: ITC was used to characterize the interaction of DmC1GalT1^T43-Q388 with UDP, APDT*RP with and without UDP, APDTRP with UDP, and P4/P7 with and without UDP. All experiments were carried out in an Auto-iTC200 (Microcal, GE Healthcare) at 20 °C. The titration of DmC1GalT1^T43-Q388 with UDP was carried out at 100 μM of the enzyme with 800 μM UDP in 25 mM TRIS pH 7.5, 150 mM NaCl and 1 mM MnCl2. The titrations with APDT*RP and P4/P7 in the absence of UDP were carried out at 60 μM of the enzyme with 2 mM P4/P7 in 25 mM TRIS pH 7.5, 150 mM NaCl and 1 mM MnCl2. To determine the Kds for APDT*RP, APDTRP and P4/P7 under an excess of UDP, the experiments were made in 25 mM TRIS pH 7.5, 150 mM NaCl, 1 mM UDP and 1 mM MnCl2. The concentration of the enzyme was 60 μM for the titrations of APDT*RP and APDTRP and 50 μM for the titration with P4/P7. The concentration of the (glyco)peptides was 2 mM in all the ITC experiments. The experiments were performed in duplicate. Data integration, correction and analysis were carried out in Origin 7 (Microcal). The data were fit to a one-site equilibrium-binding model. Stoichiometry (n) of binding in all cases was ~1:1 except for UDP whose n = 0.4.

[5] = acceptor varied, 500 µM UDP-Gal, 500 nM enzyme, pH 7.5, 30 min 37 °C, Michaelis–Menten fit ± standard error, n = 2
[6] = acceptor substrate varied (P1–P7 12.5–500 µM; APDT*RP/APDS*RP 12.5–1000 µM; α-O-methyl-GalNAc up to 2 mM), 500 µM UDP-Gal, 500 nM enzyme, 25 mM Tris pH 7.5, 150 mM NaCl, 50 µM MnCl2, 1 mg/ml BSA, 30 min 37 °C, Michaelis–Menten fit ± standard error, n = 2
[7] = acceptor varied, 500 µM UDP-Gal, 500 nM enzyme, pH 7.5, 30 min 37 °C, n = 2
[8] = excess UDP (1 mM), 1 mM MnCl2, 20 °C

Compound: Y213A: DmC1GalT1 Ala mutant of Tyr213
- decrease in activity with respect to the WT [1]: 25 fold

Compound: CO[C@H]1O[C@H](CO)[C@H](O)[C@H](O)[C@H]1NC(C)=O [α-O-methyl-GalNAc]
- activity as acceptor substrate (DmC1GalT1^T43-Q388 [2]; 500 µM UDP-Gal): kinetic parameters could not be determined
- Vmax app (DmC1GalT1^T43-Q388 [2]; [5]): 548.9 nmol/min/mg
- initial activity relative to that achieved with APDT*RP (DmC1GalT1^T43-Q388 [2]; at a saturating concentration of the glycopeptides (~500 µM)): half
- Km (DmC1GalT1^T43-Q388 [2]; [6]): 10.3 mM
- saturation of the enzyme (DmC1GalT1^T43-Q388 [2]; up to 2 mM substrate): did not reach saturation up to 2 mM
- STDAF, CH3 (NHAc) GalNAc (DmC1GalT1^T43-Q388 [3]; on resonance 7 ppm): 20.0
- STDAF, H2 GalNAc (DmC1GalT1^T43-Q388 [3]; on resonance 7 ppm): 45.0
- STDAF, H3 GalNAc (DmC1GalT1^T43-Q388 [3]; on resonance 7 ppm): 24.9
- STDAF, H4 GalNAc (DmC1GalT1^T43-Q388 [3]; on resonance 7 ppm): 27.9
- STDAF, H5-GalNAc (DmC1GalT1^T43-Q388 [3]; on resonance 7 ppm): 25.8
- STDAF, H6-GalNAc (DmC1GalT1^T43-Q388 [3]; on resonance 7 ppm): 29.5
- STDAF, OMe (DmC1GalT1^T43-Q388 [3]; on resonance 7 ppm): 16.6
- relative % STD, CH3 (NHAc) GalNAc (DmC1GalT1^T43-Q388 [3]; on resonance 7 ppm): 44%
- relative % STD, H3 GalNAc (DmC1GalT1^T43-Q388 [3]; on resonance 7 ppm): 55%
- relative % STD, H4 GalNAc (DmC1GalT1^T43-Q388 [3]; on resonance 7 ppm): 62%
- relative % STD, H5-GalNAc (DmC1GalT1^T43-Q388 [3]; on resonance 7 ppm): 57%
- relative % STD, H6-GalNAc (DmC1GalT1^T43-Q388 [3]; on resonance 7 ppm): 66%
- relative % STD, OMe (DmC1GalT1^T43-Q388 [3]; on resonance 7 ppm): 37%
- STDAF, CH3 (NHAc) GalNAc (DmC1GalT1^T43-Q388 [3]; on resonance -0.5 ppm): 18.9
- STDAF, H3 GalNAc (DmC1GalT1^T43-Q388 [3]; on resonance -0.5 ppm): 20.0
- STDAF, H4 GalNAc (DmC1GalT1^T43-Q388 [3]; on resonance -0.5 ppm): 28.7
- STDAF, H6-GalNAc (DmC1GalT1^T43-Q388 [3]; on resonance -0.5 ppm): 23.6
- STDAF, OMe (DmC1GalT1^T43-Q388 [3]; on resonance -0.5 ppm): 17.6
- relative % STD, CH3 (NHAc) GalNAc (DmC1GalT1^T43-Q388 [3]; on resonance -0.5 ppm): 61%
- relative % STD, H3 GalNAc (DmC1GalT1^T43-Q388 [3]; on resonance -0.5 ppm): 65%
- relative % STD, H4 GalNAc (DmC1GalT1^T43-Q388 [3]; on resonance -0.5 ppm): 93%
- relative % STD, H6-GalNAc (DmC1GalT1^T43-Q388 [3]; on resonance -0.5 ppm): 77%
- relative % STD, OMe (DmC1GalT1^T43-Q388 [3]; on resonance -0.5 ppm): 57%
- STDAF, H2 GalNAc (DmC1GalT1^T43-Q388 [3]; on resonance -0.5 ppm, […] UDP, 150 µM MnCl2, 298 K): 30.7
- STD response (DmC1GalT1^T43-Q388 [3]): clearly presented STD enhancements

Compound: Y218A: DmC1GalT1 Ala mutant of Tyr218
- activity of the mutant [1]: inactive

Compound: R152A: DmC1GalT1 Ala mutant of Arg152
- decrease in activity with respect to the WT [1]: 15 fold

Compound: CC(=O)N[C@H]1[C@@H](O[C@H](C)[C@H](NC(=O)[C@H](CC(=O)O)NC(=O)[C@H](C)NC(=O)[C@@H](N)Cc2ccc(O)cc2)C(=O)NCC(=O)N2CCC[C@H]2C(=O)N[C@@H](Cc2ccccc2)C(N)=O)O[C@H](CO)[C@H](O)[C@@H]1O [P7] (H-YADT(αGalNAc)GPF-NH2)
- kcat app/Km app (catalytic efficiency) (DmC1GalT1^T43-Q388 [2]; [7]): 478.8 M⁻¹ s⁻¹
- Kd (DmC1GalT1^T43-Q388 [4]; Kd, absence of UDP, 2 mM glycopeptide, 60 µM enzyme, 1 mM MnCl2, 20 °C): 37.1 µM
- Kd (DmC1GalT1^T43-Q388 [4]; Kd, excess UDP (1 mM UDP, 1 mM MnCl2), 2 mM (glyco)peptide, 50–60 µM enzyme, 20 °C): 60 µM

Compound: APDTRP
- activity as acceptor substrate (DmC1GalT1^T43-Q388 [2]; 500 µM UDP-Gal): inactive
- Km app (DmC1GalT1^T43-Q388 [2]; [6]): not active
- kcat app (DmC1GalT1^T43-Q388 [2]; [5]): not active
- kcat app/Km app (catalytic efficiency) (DmC1GalT1^T43-Q388 [2]; [7]): not active
- Km (DmC1GalT1^T43-Q388 [2]; [6]): ~0.05 mM
- Kd (DmC1GalT1^T43-Q388 [4]; excess UDP (1 mM UDP, 1 mM MnCl2), 2 mM (glyco)peptide, 50–60 µM enzyme, 20 °C): Not measurable under our conditions
- -TΔS (DmC1GalT1^T43-Q388 [4]; [8]): Not measurable under our conditions
- n (stoichiometry of binding) (DmC1GalT1^T43-Q388 [4]; [8]): Not measurable under our conditions
- ΔG (DmC1GalT1^T43-Q388 [4]; [8]): Not measurable under our conditions
- ΔH (DmC1GalT1^T43-Q388 [4]; [8]): Not measurable under our conditions
- binding by ITC (DmC1GalT1^T43-Q388 [4]; presence of an excess of UDP): no binding
- STD response (DmC1GalT1^T43-Q388 [3]): did not display STD response
